Reference: patent publication US9682087B2 (The Population Council, Inc., priority 2009, dated 2017)

Legend:
[1] = Absorption of the hormones applied onto the skin; assay type: in vivo
Experimental: These levels of these hormones applied onto the skin result in 10% absorption, and thus correspond to a daily dose of about 300 to 450 μg of the progestin and about 100 to 150 μg of the estrogen. Expressed in a different manner, it would also be possible to equate these levels of absorption of these hormones to corresponding plasma levels in the patient.

[2] = test system: androgenic, estrogenic or glucocorticoid actions; conditions: at therapeutic levels; cited from earlier work
[3] = oral administration; cited from earlier work
ovulation = assay: Ovulation blockade by NES at given serum level; assay type: in vivo; conditions: doses leading to serum levels of 250 pmol/L

Row | SMILES | absorption rate ([1]; female, human, in vivo) | androgenic, estrogenic or glucocorticoid actions [2] | activity when administered orally [3] | subjects in whom ovulation was blocked (ovulation) | absorption rate ([1]; applied in a transdermal manner)
1 | C[C@]12CC[C@@H]3c4ccc(O)cc4CC[C@H]3[C@@H]1CC[C@@H]2O [estradiol, 17β-estradiol] | approximately 10% | – | – | – | –
2 | C=C1C[C@H]2[C@@H]3CCC4=CC(=O)CC[C@@H]4[C@H]3CC[C@]2(C)[C@@]1(OC(C)=O)C(C)=O [NES, 16-methylene-17α-acetoxy-19-norpregn-4-ene-3,20-dione] | – | does not carry androgenic, estrogenic or glucocorticoid actions | not active | more than 95% | approximately 10%
